Data taken from patent publication US20260109699A1, “AZOLE DERIVATIVES AS SHP2 INHIBITORS” (IRBM S.P.A., priority 2022, published 2026).

Experiments:
[1] = target: T1, SHP-2 enzyme (Met1-Leu525), SHP2wt (Homo sapiens, UniProt Q06124); test: SHP2 inhibition enzymatic assay; assay type: biochemical; details: 0.5 nM SHP-2 activated by 500 nM IRS1 peptide, 75 μM DiFMUP substrate
T1 construct: synthetized by Origene, Met1-Leu525, cat #TP750155; purchased Origene TP750155
T1 sequence (Q06124 1-525): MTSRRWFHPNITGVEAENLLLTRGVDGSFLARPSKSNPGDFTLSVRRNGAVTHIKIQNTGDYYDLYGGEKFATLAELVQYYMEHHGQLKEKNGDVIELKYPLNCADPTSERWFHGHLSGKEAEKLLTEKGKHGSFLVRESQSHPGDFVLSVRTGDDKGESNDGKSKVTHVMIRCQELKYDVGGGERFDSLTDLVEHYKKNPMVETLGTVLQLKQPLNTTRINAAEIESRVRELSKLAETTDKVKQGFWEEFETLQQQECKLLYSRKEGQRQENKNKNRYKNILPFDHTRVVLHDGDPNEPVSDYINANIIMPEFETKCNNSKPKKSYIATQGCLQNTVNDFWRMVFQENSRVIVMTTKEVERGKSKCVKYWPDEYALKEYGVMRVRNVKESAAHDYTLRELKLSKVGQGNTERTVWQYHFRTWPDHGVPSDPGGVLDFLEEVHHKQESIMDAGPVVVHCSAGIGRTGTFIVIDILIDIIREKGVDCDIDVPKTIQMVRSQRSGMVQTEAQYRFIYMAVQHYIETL
Summary of the method: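 Human SHP2 (Met1-Leu525, 0.5 nM) activated by 500 nM bis-phosphorylated IRS1 peptide, pre-incubated 30 min with compound, then 75 μM DiFMUP for 30 min at rt in HEPES pH 7.2, NaCl/KCl, EDTA, Tween-20, 5 mM DTT. Reaction quenched with bpV, fluorescence read; IC50 by four-parameter logistic fit.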

[2] = test system: phospho-ERK1/2 (Thr202/Tyr204); test: Phospho-ERK cellular assay; assay type: cell-based; details: Homo sapiens; KYSE-520 cells, 2 h at 37° C, TR-FRET; read-out: pERK IC50
Summary of the method: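 KYSE-520 cells treated overnight-after-plating with serially diluted compounds for 2 h at 37° C, then lysed. Phospho-ERK1/2 measured by TR-FRET after overnight antibody incubation at rt; inhibition normalized between DMSO (0%) and no-cell (100%) wells, IC50 from four-parameter logistic fit.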

[3] = target: T2, recombinant SHP2 protein (AviTag-G4SG4S-SHP2(1-525)) (Homo sapiens, UniProt Q06124); test: Binding kinetic assay by surface plasmon resonance (SPR); details: for Residence time 1/koff SPR: 1/koff from SPR; for koff: Biacore T200, single cycle kinetic, 25° C, 1:1 Langmuir model
T2 construct: recombinant SHP2 protein (AviTag-G4SG4S-SHP2(1-525)); purchased VIVA Biotech Ltd (custom production)
T2 sequence (Q06124 1-525): T1 sequence (Q06124 1-525)
Experimental: A N-term biotinylated recombinant SHP2 protein (AviTag-G4SG4S-SHP2(1-525)) was custom produced by VIVA Biotech Ltd. Binding kinetic rate constants were measured by SPR, using a Biacore T200 instrument. The recombinant SHP2 protein was diluted at […] in HBS-P+ buffer, then captured on a series S streptavidin sensor chip up to 5000 RU. Binding of compounds was assessed by a single cycle kinetic procedure (SCK): compounds were diluted in HBS-EP+ supplemented with 20% DMSO (from 300 to 3.7 nM, 3 fold dilution), injected for 120 s over the ligand, then dissociation rate measured for 3600 s, at […] and 25° C. Sensorgrams were analysed by Biacore T200 evaluation software: binding rate constants (kon, koff) and affinity (KD) were calculated by curve filling according to a 1:1 Langmuir model. Each molecule was tested in triplicate on separate flow channels.

[4] = Determination of brain penetration in SD rats; assay type: in vivo; details: Sprague-Dawley (SD), rat; male SD rats, IV 0.2 mg/kg, unbound brain to plasma ratio at 8 h; read-out: Kpuu, brain
Experimental: Total brain levels, expressed as brain/plasma ratio (Kp,brain) were measured by Cbrain@8h/Cplasma@8h in SD rats after IV administration (see Pharmaceutical Research, Vol. 25, No. 8, August 2008 DOI: 10.1007/s11095-007-9502-2; Pharmaceutical Research (2022) 39:1321-1341 https://doi.org/10.1007/s11095-022-03246-6). Unbound fraction of each molecule in biological matrix was determined by in vitro plasma and brain binding assay. Kpuu, brain was calculated by the following equation: […]
In vitro plasma and brain binding assay was carried out on a RED (Rapid Equilibrium Dialysis) device. Unbound fraction (fu) of each molecule in the brain homogenate and plasma were calculated by the ratio of the buffer side response to the brain homogenate/plasma side response. An IV study design was used as the in vivo screening model to identify brain penetration of each molecule. Male naïve SD rats (n=3) were intravenously dosed with each molecule at 0.2 mg/kg in DMSO/Propylene Glycol/Water, 20:60:20 (v/v/v). At 0.083, 0.25, 0.5, 1, 2, 4, and 8 h post-dose plasma samples were collected via tail vein and brain tissue was harvested at the 8 h time point and homogenized in 3× volume of water. All samples were stored at ˜−80° C. prior to LC/MS/MS analysis. At the 8 h time point, the unbound brain to plasma ratios were generated to identify molecules with Kpuu, brain values>0.3 which is indicative of good passive brain penetration.

Cc1cccc(Sc2cnc(N3CCC4(CC3)Cn3nccc3[C@H]4N)cn2)c1F [Example 36, (S)-1-(5-((2-fluoro-3-methylphenyl)thio)pyrazin-2-yl)-4′H,6′H-spiro[piperidine-4,5′-pyrrolo[1,2-b]pyrazol]-4′-amine]
IC50 [1]: ≤ 50 nM
IC50 [2]: < 100 nM
Residence time 1/koff SPR [3]: 53571 s
koff [3]: 1.87e-05 s⁻¹
Kp uu at 8 h [4]: < 0.3

N[C@@H]1c2ccnn2CC12CCN(c1cnc(Oc3cccc(Cl)c3Cl)cn1)CC2 [Example 2, (S)-1-(5-(2,3-dichlorophenoxy)pyrazin-2-yl)-4′H,6′H-spiro[piperidine-4,5′-pyrrolo[1,2-b]pyrazol]-4′-amine]
IC50 [1]: ≤ 50 nM
IC50 [2]: 100 to 500 nM
Residence time 1/koff SPR [3]: 1944 s
koff [3]: 0.000514 s⁻¹
Kp uu at 8 h [4]: > 0.3

Cc1c(N2CCC3(CC2)Cn2nccc2[C@H]3N)nc(C)n(-c2cccc(Cl)c2Cl)c1=O (single isomer, unassigned) [Example 3]
IC50 [1]: ≤ 50 nM
IC50 [2]: < 100 nM
Residence time 1/koff SPR [3]: 8065 s
koff [3]: 0.000124 s⁻¹
Kp uu at 8 h [4]: > 0.3

N[C@@H]1c2ccnn2CC12CCN(c1cnc(Sc3ccc(F)cc3Cl)cn1)CC2 [Example 34, (S)-1-(5-((2-chloro-4-fluorophenyl)thio)pyrazin-2-yl)-4′H,6′H-spiro[piperidine-4,5′-pyrrolo[1,2-b]pyrazol]-4′-amine]
IC50 [1]: ≤ 50 nM
IC50 [2]: < 100 nM

N[C@@H]1c2ccnn2CC12CCN(c1cnc(Sc3cccc(C(F)F)c3F)cn1)CC2 [Example 58, (S)-1-(5-((3-(difluoromethyl)-2-fluorophenyl)thio)pyrazin-2-yl)-4′H,6′H-spiro[piperidine-4,5′-pyrrolo[1,2-b]pyrazol]-4′-amine]
IC50 [1]: ≤ 50 nM
IC50 [2]: < 100 nM

N[C@@H]1c2ccnn2CC12CCN(c1cnc(Sc3ccc(C(F)(F)F)cc3)cn1)CC2 [Example 19, (S)-1-(5-((4-(trifluoromethyl)phenyl)thio)pyrazin-2-yl)-4′H,6′H-spiro[piperidine-4,5′-pyrrolo[1,2-b]pyrazol]-4′-amine]
IC50 [1]: ≤ 50 nM
IC50 [2]: 100 to 500 nM

N[C@@H]1c2ccnn2CC12CCN(c1cnc(Sc3ccc(C(F)F)cc3F)cn1)CC2 [Example 59, (S)-1-(5-((4-(difluoromethyl)-2-fluorophenyl)thio)pyrazin-2-yl)-4′H,6′H-spiro[piperidine-4,5′-pyrrolo[1,2-b]pyrazol]-4′-amine]
IC50 [1]: ≤ 50 nM
IC50 [2]: 100 to 500 nM

N[C@@H]1c2ccnn2CC12CCN(c1cnc(Sc3ccc(F)c4ncccc34)cn1)CC2 [Example 68, (S)-1-(5-((8-fluoroquinolin-5-yl)thio)pyrazin-2-yl)-4′H,6′H-spiro[piperidine-4,5′-pyrrolo[1,2-b]pyrazol]-4′-amine]
IC50 [1]: ≤ 50 nM
IC50 [2]: < 100 nM

Cc1cc(Cl)ccc1Sc1cnc(N2CCC3(CC2)Cn2nccc2[C@H]3N)cn1 [Example 40, (S)-1-(5-((4-chloro-2-methylphenyl)thio)pyrazin-2-yl)-4′H,6′H-spiro[piperidine-4,5′-pyrrolo[1,2-b]pyrazol]-4′-amine]
IC50 [1]: ≤ 50 nM
IC50 [2]: 100 to 500 nM

N[C@@H]1c2ccnn2CC12CCN(c1cnc(Oc3ccc(Cl)cc3F)cn1)CC2 [Example 79, (S)-1-(5-(4-chloro-2-fluorophenoxy)pyrazin-2-yl)-4′H,6′H-spiro[piperidine-4,5′-pyrrolo[1,2-b]pyrazol]-4′-amine]
IC50 [1]: ≤ 50 nM
IC50 [2]: 100 to 500 nM

N[C@@H]1c2ccnn2CC12CCN(c1cnc(Oc3ccccc3F)cn1)CC2 [Example 78, (S)-1-(5-(2-fluorophenoxy)pyrazin-2-yl)-4′H,6′H-spiro[piperidine-4,5′-pyrrolo[1,2-b]pyrazol]-4′-amine]
IC50 [1]: ≤ 50 nM
IC50 [2]: 100 to 500 nM

N[C@@H]1c2ccnn2CC12CCN(c1cnc(Sc3cccc(F)c3F)cn1)CC2 [Example 53, (S)-1-(5-((2,3-difluorophenyl)thio)pyrazin-2-yl)-4′H,6′H-spiro[piperidine-4,5′-pyrrolo[1,2-b]pyrazol]-4′-amine]
IC50 [1]: ≤ 50 nM
IC50 [2]: < 100 nM

Cc1c(F)ccc(Sc2cnc(N3CCC4(CC3)Cn3nccc3[C@H]4N)cn2)c1F [Example 45, (S)-1-(5-((2,4-difluoro-3-methylphenyl)thio)pyrazin-2-yl)-4′H,6′H-spiro[piperidine-4,5′-pyrrolo[1,2-b]pyrazol]-4′-amine]
IC50 [1]: ≤ 50 nM
IC50 [2]: < 100 nM
Residence time 1/koff SPR [3]: 12664 s
koff [3]: 7.9e-05 s⁻¹

N[C@@H]1c2ccnn2CC12CCN(c1cnc(Sc3ccncc3)cn1)CC2 [Example 25, (S)-1-(5-(pyridin-4-ylthio)pyrazin-2-yl)-4′H,6′H-spiro[piperidine-4,5′-pyrrolo[1,2-b]pyrazol]-4′-amine]
IC50 [1]: ≤ 50 nM
IC50 [2]: < 100 nM

N#Cc1ccc(Sc2cnc(N3CCC4(CC3)Cn3nccc3[C@H]4N)cn2)c2cccnc12 [Example 66, (S)-5-((5-(4′-amino-4′H,6′H-spiro[piperidine-4,5′-pyrrolo[1,2-b]pyrazol]-1-yl)pyrazin-2-yl)thio)quinoline-8-carbonitrile]
IC50 [1]: ≤ 50 nM
IC50 [2]: < 100 nM

N[C@@H]1c2ccnn2CC12CCN(c1cnc(Sc3ccccc3C(F)F)cn1)CC2 [Example 72, (S)-1-(5-((2-(difluoromethyl)phenyl)thio)pyrazin-2-yl)-4′H,6′H-spiro[piperidine-4,5′-pyrrolo[1,2-b]pyrazol]-4′-amine]
IC50 [1]: ≤ 50 nM
IC50 [2]: < 100 nM

N[C@@H]1c2ccnn2CC12CCN(c1cnc(Sc3ccc4c(c3)CCO4)cn1)CC2 [Example 42, (S)-1-(5-((2,3-dihydrobenzofuran-5-yl)thio)pyrazin-2-yl)-4′H,6′H-spiro[piperidine-4,5′-pyrrolo[1,2-b]pyrazol]-4′-amine]
IC50 [1]: ≤ 50 nM
IC50 [2]: < 100 nM

N[C@@H]1c2ccnn2CC12CCN(c1cnc(Sc3ccc(C(F)(F)F)c4ncccc34)cn1)CC2 [Example 67, (S)-1-(5-((8-(trifluoromethyl)quinolin-5-yl)thio)pyrazin-2-yl)-4′H,6′H-spiro[piperidine-4,5′-pyrrolo[1,2-b]pyrazol]-4′-amine]
IC50 [1]: ≤ 50 nM
IC50 [2]: < 100 nM

N#Cc1ccc(Sc2cnc(N3CCC4(CC3)Cn3nccc3[C@H]4N)cn2)c(F)c1 [Example 76, (S)-4-((5-(4′-amino-4′H,6′H-spiro[piperidine-4,5′-pyrrolo[1,2-b]pyrazol]-1-yl)pyrazin-2-yl)thio)-3-fluorobenzonitrile]
IC50 [1]: ≤ 50 nM
IC50 [2]: < 100 nM

N[C@@H]1c2ccnn2CC12CCN(c1cnc(Sc3ccccc3)cn1)CC2 [Example 24, (S)-1-(5-(phenylthio)pyrazin-2-yl)-4′H,6′H-spiro[piperidine-4,5′-pyrrolo[1,2-b]pyrazol]-4′-amine]
IC50 [1]: ≤ 50 nM
IC50 [2]: < 100 nM
